Source: US20250073248A1, “BIORESORBABLE CATIONIC STEROIDAL ANTIMICROBIAL COMPOUNDS WITH GLYCERIDE LINKAGES” (BRIGHAM YOUNG UNIVERSITY, priority 2023, published 2025)

Tests used:
[1] = system: K. pneumoniae ATCC BAA-1706; experiment: MIC/MBC of CSA-4110, Gram negative bacteria (Table 3); type: cell-based; settings: Klebsiella pneumoniae, ATCCBAA1706
Procedure: (§1) All compounds were screened against these pathogens to determine their minimum inhibitory concentration (MIC), minimum bactericidal concentration (MBC), and minimum fungicidal concentration (MFC) using a broth microdilution method. […] Of these three, only CSA-4110 was similarly active against PA01and CA, inhibiting growth at 8 μg/mL.
(§2) CSA-4110 was evaluated further against a broader range of bacterial and fungal strains. Acinetobacter baumannii and several isolates of Staphylococcus aureus, Klebsiella pneumoniae, and Candida auris were selected, further broadening the coverage of high and critical priority pathogens. Streptococcus uberis, Staphylococcus pseudintermedius, Proteus mirabilis, and Escherichia coli were also screened to obtain a more complete efficacy profile. […] For comparison, previous work established the MICs of CSA-131 against strains of Staphylococcus aureus, Pseudomonas aeruginosa, and Candida albicans at 0.5-2 μg/mL

A. baumannii ATCC 19606 = experiment: as above; type: cell-based; settings: Acinetobacter baumannii, ATCC19606
Procedure: as §1, §2

E. coli ATCC 25922 = experiment: as above; type: cell-based; settings: Escherichia coli, ATCC25922
Procedure: as §1, §2

P. aeruginosa ATCC 27853 = experiment: as above; type: cell-based; settings: Pseudomonas aeruginosa, ATCC27853
Procedure: as §1, §2

K. pneumoniae ATCC 13883 = experiment: as above; type: cell-based; settings: Klebsiella pneumoniae, ATCC13883
Procedure: as §1, §2

K. pneumoniae ARLG 1360 = experiment: as above; type: cell-based; settings: Klebsiella pneumoniae, ARLG1360
Procedure: as §1, §2

[2] = system: P. aeruginosa 01 ATCC 47085; experiment: as above; type: cell-based; settings: Pseudomonas aeruginosa, ATCC47085
Procedure: as §1, §2

C. albicans ATCC 90028 = experiment: MIC/MFC of CSA-4110, fungi (Table 4); type: cell-based; settings: Candida albicans, ATCC90028
Procedure: as §1, §2

[3] = system: Pseudomonas aeruginosa (Pa); experiment: Example 1 MIC/MBC (FIG. 1, FIG. 2), Pa; type: cell-based
Procedure: The antimicrobial activities of CSA-4108, CSA-4110, CSA-4112, and CSA-4114 were determined relative to methicillin-resistant Staphylococcus aureus (MRSA), Pseudomonas aeruginosa (Pa), and Candida albicans 90028. The minimum inhibitory concentration (MIC) for CSA-4108, CSA-4110, CSA-4112, and CSA-4114 relative to the foregoing microbes is graphically reported in FIG. 1. The minimum bactericidal concentration (MBC) and minimum fungicidal concentration […] for CSA-4108, CSA-4110, CSA-4112, and CSA-4114 relative to the foregoing microbes are graphically reported in FIG. 2.

[4] = Critical micelle concentration, orange OT dye solubilization; type: physicochemical; settings: aqueous solution with orange OT dye, water; FIG. 4; read-out: critical micelle concentration (CMC), solubilization of orange OT
Procedure: Previous studies have shown membrane disruption and permeabilization to be the mechanism of action of other CSA compounds. The critical micelle concentration (CMC) of CSA-4110 was measured to determine if aggregation was necessary for antimicrobial activity (see FIG. 4). This assay involves using a hydrophobic dye (orange OT) that is insoluble in water to measure what concentration of CSA-4110 is required to solubilize orange OT. Entry of orange OT into solution is due to micelle formation by CSA-4110 and can be quantified with a spectrophotometer.

MRSA ATCC BAA-42 = experiment: MIC/MBC of CSA-4110, Gram positive bacteria (Table 2); type: cell-based; settings: Staphylococcus aureus
Procedure: as §1, §2

[5] = system: S. psuedintermedius ATCC 49444; experiment: as above; type: cell-based; settings: Staphylococcus pseudintermedius, ATCC49444
Procedure: as §1, §2

C. auris CDC 389 = experiment: MIC/MFC of CSA-4110, fungi (Table 4); type: cell-based, Candida auris; settings: Candidozyma auris, CDC389
Procedure: as §1, §2

C. auris CDC 385 = experiment: MIC/MFC of CSA-4110, fungi (Table 4); type: cell-based, Candida auris; settings: Candidozyma auris, CDC385
Procedure: as §1, §2

C. auris CDC 387 = experiment: MIC/MFC of CSA-4110, fungi (Table 4); type: cell-based, Candida auris; settings: Candidozyma auris, CDC387
Procedure: as §1, §2

C. auris CDC 382 = experiment: MIC/MFC of CSA-4110, fungi (Table 4); type: cell-based, Candida auris; settings: Candidozyma auris, CDC382
Procedure: as §1, §2

C. auris CDC 383 = experiment: MIC/MFC of CSA-4110, fungi (Table 4); type: cell-based, Candida auris; settings: Candidozyma auris, CDC383
Procedure: as §1, §2

C. auris CDC 381 = experiment: MIC/MFC of CSA-4110, fungi (Table 4); type: cell-based, Candida auris; settings: Candidozyma auris, CDC381
Procedure: as §1, §2

C. auris CDC 384 = experiment: MIC/MFC of CSA-4110, fungi (Table 4); type: cell-based, Candida auris; settings: Candidozyma auris, CDC384
Procedure: as §1, §2

C. auris CDC 388 = experiment: MIC/MFC of CSA-4110, fungi (Table 4); type: cell-based, Candida auris; settings: Candidozyma auris, CDC388
Procedure: as §1, §2

C. auris CDC 390 = experiment: MIC/MFC of CSA-4110, fungi (Table 4); type: cell-based, Candida auris; settings: Candidozyma auris, CDC390
Procedure: as §1, §2

C. auris CDC 386 = experiment: MIC/MFC of CSA-4110, fungi (Table 4); type: cell-based, Candida auris; settings: Candidozyma auris, CDC386
Procedure: as §1, §2

CCCCCCCCCC(=O)OCC(O)COC(=O)CC[C@@H](C)[C@H]1CC[C@H]2[C@@H]3[C@H](OC(=O)CCN)C[C@@H]4C[C@H](OC(=O)CCN)CC[C@]4(C)[C@H]3C[C@H](OC(=O)CCN)[C@]12C (stereo partly shown) [CSA-4110]
lowest MIC: MIC (FIG. 1), ranking in words ([3]; Pa)
~1000 µg/mL: critical micelle concentration [4]
lowest MBC and MFC: MBC (FIG. 2), ranking in words ([3]; PA)
2 µg/mL: MBC (K. pneumoniae ATCC 13883) | MIC (K. pneumoniae ATCC 13883) | MBC (MRSA ATCC BAA-42) | MIC (MRSA ATCC BAA-42)
4 µg/mL: MBC [1] | MIC [1] | MBC (A. baumannii ATCC 19606) | MIC (A. baumannii ATCC 19606) | MBC (E. coli ATCC 25922) | MIC (E. coli ATCC 25922) | MIC (P. aeruginosa ATCC 27853) | MIC [2] | MIC (C. albicans ATCC 90028) | MBC [5] | MIC [5] | MIC (C. auris CDC 384)
8 µg/mL: MBC (P. aeruginosa ATCC 27853) | MBC (K. pneumoniae ARLG 1360) | MIC (K. pneumoniae ARLG 1360) | MBC [2] | MIC (C. auris CDC 389) | MIC (C. auris CDC 385) | MIC (C. auris CDC 387) | MIC (C. auris CDC 382) | MIC (C. auris CDC 383) | MBC (C. auris CDC 381) | MIC (C. auris CDC 381) | MIC (C. auris CDC 388) | MIC (C. auris CDC 390) | MIC (C. auris CDC 386)
16 µg/mL: MBC (C. albicans ATCC 90028) | MBC (C. auris CDC 389) | MBC (C. auris CDC 385) | MBC (C. auris CDC 387) | MBC (C. auris CDC 382) | MBC (C. auris CDC 383) | MBC (C. auris CDC 384) | MBC (C. auris CDC 388) | MBC (C. auris CDC 390) | MBC (C. auris CDC 386)
